Earlier results, collected in patent US5229370A, “Water soluble branched beta cyclodextrin steroid complex” (priority 1992, dated 1993).

Conditions: under ambient conditions; reported
For `C[C@]12CC[C@H]3[C@@H](CCC4=CC(=O)CC[C@@]43C)[C@@H]1CC[C@@H]2O` [testosterone], the “solubility of steroid in water” value is given as 40 µg/mL. In the case of `CC(C)CCC[C@@H](C)[C@H]1CC[C@H]2[C@@H]3CC=C4C[C@@H](O)CC[C@]4(C)[C@H]3CC[C@]12C` [cholesterol], the “solubility of steroid in water” value is given as 2 µg/mL. In the case of `CC(=O)[C@H]1CC[C@H]2[C@@H]3CCC4=CC(=O)CC[C@]4(C)[C@H]3CC[C@]12C` [progesterone], the “solubility of steroid in water” value is given as 16 µg/mL.
